Values quoted from earlier work, collected in patent US20230201393A1, “DI[…] AND METHODS USING POLYMER COMPOSITIONS THAT FORM CHLORINE DIOXIDE GAS” (priority 2020, published 2023).

Legend:
[1] = system: Influenza A
[2] = system: poliovirus 1; conditions: 4 ppm ClO2, 5 minutes of exposure

For `[O][Cl+][O-]` [Chlorine dioxide], the miscibility in water is given as “up to 60 g/L”, the survival rate ([1]; 0.03 ppm ClO2 administered after, versus 30% when untreated) is given as 100% and the log kill ([1]; 0.03 ppm of ClO2 administered at the same time as the virus) is given as 4 log. For the same compound, the inactivation [2] was ≥ 99.9%.
